Test results: patent US20060154871A1, “Peptides” (ReGen Therapeutics PIc, priority 1999, published 2006)

Tested on: rabbits
Assay: Serum antibody titre by ELISA against the corresponding synthetic peptide antigen, before and after the 10 week immunisation of rabbits
Format: in vivo, rabbit
Settings: for Titre: (Serum Dilution) Post Immunization R1: rabbit R1, after 10 week immunisation protocol, 200 μg peptide conjugate per inoculation; for Titre: (Serum Dilution) Pre Immunization R1: rabbit R1, pre immunization serum, ELISA with synthetic peptide antigen; for antigenic response: rabbits R1 and R2, summary of Table 6
Source text: To each N-terminal end of the synthetic peptides, L-cysteine was attached, and the peptide was formed into a ring so that the cysteine group lay between the N-terminal and the C-terminal ends of the synthetic peptide. This facilitated peptide conjugation with Keyhole Hemolymph (KHL). The shorter peptides (i.e. those containing 9 or fewer amino acids) were artificially elongated with biologically inert amino acids prior to attaching the L-cysteine. This was done in order to facilitate annealing and increase the antigenicity of the shorter peptides.
For immunisation, two young adult rabbits (5-6 months old, weighing 5-6 lbs [2.3-2.7 kg]) were used. Each antigen (i.e., each synthetic peptide) was given subcutaneously and intramuscularly in 0.1 ml injections at ten different sites. The protocol used followed the following sequence:
The level of antibodies in the serum was established by ELISA (enzyme-linked immunosorbent assay) with the corresponding synthetic peptide antigen. This technique involved the following steps: • 1. The antigen was diluted with a 0.1 M bicarbonate buffer (pH 9.0) to yield a 10 μg of antigen/ml solution. A volume of 50 μl of this solution was placed into each microwell of a 96 well plate. • 2. The plates were covered and incubated at 37° C. for 3 hours. • 3. The wells were washed with a coupling buffer and blocked using 200 μl of Pierce standard solution of BSA (bovine serum albumin). • 4. 50 μl of dilutent BSA (0.75% soln.) was pipetted into each well. 50 μl of antibody serum sample diluted 1:100 in dilutent BSA were placed in lane A of each row. • 5. 1:2 serial dilutions were performed moving down the plate. • 6. The plates were covered and incubated at room temperature for 60 minutes. • 7. The plates were washed four times with PBS wash solution. • 8. A volume of 50 μl of goat anti-rabbit IgG (H&L) HRP conjugate at 1:1000 dilution in BSA was pipetted into each well and incubated at room temperature for 60 minutes (H&L=heavy and light chain; HRP=horseradish peroxidase). • 9. The plates were washed four times with PBS wash solution. • 10. A volume of 50 μl of substrate solution 2,2′-azino-bis(3-ethylbenzothiazoline-6-sulfonic acid)-diammonium salt (ABTS available from Pierce, which is used to help visualise the extent of the antibody/antigen reaction) was pipetted into each well and incubated at room temperature for about 2 minutes. • 11. The reaction was stopped by adding 50 μl of 1% SDS (sodium dodecyl sulfate) into each well. • 12. The wells were then read on a dynoplate reader at 405.
The data presented in Table 6 show the serum antibody titers against specific antibodies after the 10 week immunisation protocol.

SEQP [Peptide A-5]
Titre: (Serum Dilution) Post Immunization R1: 3200
Titre: (Serum Dilution) Pre Immunization R1: 0

MPQNFYKLPQM [Peptide A-2, Colostrinin peptide of unknown precursor]
Titre: (Serum Dilution) Post Immunization R1: 6400
Titre: (Serum Dilution) Pre Immunization R1: 0

LQTPQPLLQVMMEPQGD [Peptide A-1, Colostrinin peptide of unknown precursor]
Titre: (Serum Dilution) Post Immunization R1: 6400
Titre: (Serum Dilution) Pre Immunization R1: 0
antigenic response: significantly lower than expected

LFFFLPVVNVLP [Peptide B-8, Colostrinin peptide (possibly) having β-casein homologue precursor]
Titre: (Serum Dilution) Post Immunization R1: 200
Titre: (Serum Dilution) Pre Immunization R1: 0
antigenic response: significantly lower than expected

VLPPNVG [Peptide B-1, Colostrinin peptide (possibly) having β-casein homologue precursor]
Titre: (Serum Dilution) Post Immunization R1: 26500
Titre: (Serum Dilution) Pre Immunization R1: 0

SEEMP [Peptide B-3]
Titre: (Serum Dilution) Post Immunization R1: 25600
Titre: (Serum Dilution) Pre Immunization R1: 0

VVMEV [Peptide B-6]
Titre: (Serum Dilution) Post Immunization R1: 25600
Titre: (Serum Dilution) Pre Immunization R1: 0

VLEMKFPPPPQETVT [Peptide A-3, Colostrinin peptide of unknown precursor]
Titre: (Serum Dilution) Post Immunization R1: 6400
Titre: (Serum Dilution) Pre Immunization R1: 0

AFLLYQE [Peptide C-12, β-casein precursor peptide, Casein Position 202-208]
Titre: (Serum Dilution) Post Immunization R1: 12800

DQPPDVEKPDLQPFQVQS [Peptide B-10, Colostrinin peptide (possibly) having β-casein homologue precursor]
Titre: (Serum Dilution) Post Immunization R1: 12800
Titre: (Serum Dilution) Pre Immunization R1: 0

MQPPPLP [Peptide B-9, Colostrinin peptide (possibly) having β-casein homologue precursor]
Titre: (Serum Dilution) Post Immunization R1: 3200
Titre: (Serum Dilution) Pre Immunization R1: 0

DPPPPQS [Peptide A-7, Colostrinin peptide of unknown precursor]
Titre: (Serum Dilution) Post Immunization R1: 3400
Titre: (Serum Dilution) Pre Immunization R1: 0
antigenic response: significantly lower than expected

ATFNRYQDDHGEEILKSL [Peptide D-1, annexin precursor peptide, Annexin Position 203-220]
Titre: (Serum Dilution) Post Immunization R1: 12800
Titre: (Serum Dilution) Pre Immunization R1: 0

LKPFPKLKVEVFPFP [Peptide A-4, Colostrinin peptide of unknown precursor]
Titre: (Serum Dilution) Post Immunization R1: 6400
Titre: (Serum Dilution) Pre Immunization R1: 0

DSQPPV [Peptide B-4]
Titre: (Serum Dilution) Post Immunization R1: 25600
Titre: (Serum Dilution) Pre Immunization R1: 0

KYKLQPE [Peptide B-2, Colostrinin peptide (possibly) having β-casein homologue precursor]
Titre: (Serum Dilution) Post Immunization R1: 25600
Titre: (Serum Dilution) Pre Immunization R1: 0

DLEMPVLPVEPFPFV [Peptide B-7, Colostrinin peptide (possibly) having β-casein homologue precursor]
Titre: (Serum Dilution) Post Immunization R1: 25600
Titre: (Serum Dilution) Pre Immunization R1: 0

FPPPK [Peptide B-5]
Titre: (Serum Dilution) Post Immunization R1: 12800
Titre: (Serum Dilution) Pre Immunization R1: 0
